Assay results reported in paper PMC9166766 (Experimental & Molecular Medicine, 2022).
No end group written: not given here.

System: Jurkat T cells (PMA and ionomycin-induced gene expression)
Assay: mRNA sequencing of activated Jurkat T cells
Assay type: cell-based, human
Procedure: We then extracted RNA from these cells. Construction of the cDNA library and next-generation sequencing was performed at LAS (Gimpo, Korea). We sequenced all samples on an Illumina NextSeq 500 system with 75 paired-end reads. For the RNA sequencing analysis, reads for each sample were aligned to the human genome (GRCh37/hg19 genome assembly) using STAR 2.4.0.1[25] with default settings. We used HOMER tools to quantify and normalize the defined genes in RefSeq transcripts. FPKM normalized genes were hierarchically clustered using Cluster3.0[26]. We visualized refined data with Java Treeview (http://jtreeview.sourceforge.net). We conducted gene ontology analysis of each cluster using the DAVID web tool (https://david.ncifcrf.gov). Finally, we visualized the expression levels of target genes using the Integrative Genomics Viewer (http://software.broadinstitute.org/software/igv). The raw data were submitted to the NCBI Gene Expression Omnibus under accession number GSE185561.
Fig. 3 The CABIN1 peptide inhibits T-cell activation. a Heatmap of altered genes affected by FK506 treatment or CABIN1 peptide expression upon T-cell activation. b Gene Ontology analysis of cluster III. c mRNA expression levels of genes included in cluster III. d qRT-PCR data of genes in c. The experiment was independently repeated at least three times, and the data are presented as the mean ± standard deviation. Statistical differences were determined using two-tailed Student’s t-test. *p < 0.05, **p < 0.01, ***p < 0.001, NC negative control.

## CABIN1-L-1-2: 10 amino acids from proline 2146 to proline 2155 of full-length CABIN1; expressed GST-, GAL4 DBD- or HA-mCherry-tagged (PEITVTPPTP; also: expressed GST-, GAL4 DBD- or HA-mCherry-tagged, end not given here)
Jurkat, PMA and ionomycin 8 h
  CD27 and CD70 expression: repressed
  RNA levels of T-cell activation markers (IL2, IL3, NFATC1, CCL4, CCL20, CXCL8): reduced the RNA levels
P+I 8 h, NC 0, NC_P+I 3.268
  TM4SF1 expression: 0.907 FPKM
P+I 8 h, NC 0, NC_P+I 3.759
  CD200 expression: 0.094 FPKM
P+I 8 h, NC 0, NC_P+I 6.38
  ZP4 expression: 5.182 FPKM
P+I 8 h, NC 0, NC_P+I 6.448
  CCL3L1 expression: 0.079 FPKM
P+I 8 h, NC 0, NC_P+I 6.524
  CCL3L3 expression: 0.079 FPKM
P+I 8 h, NC 0, NC_P+I 9.86
  CCL1 expression: 0.415 FPKM
P+I 8 h, NC 0, NC_P+I 10.173
  NR4A2 expression: 0.356 FPKM
P+I 8 h, NC 0, NC_P+I 12.758
  CCL4L2 expression: 0.328 FPKM
P+I 8 h, NC 0, NC_P+I 13.27
  CCL4L1 expression: 0.328 FPKM
P+I 8 h, NC 0, NC_P+I 23.497
  CSF2 expression: 0.314 FPKM
P+I 8 h, NC 0, NC_P+I 49.113
  XCL1 expression: 1.144 FPKM
P+I 8 h, NC 0, NC_P+I 52.239
  CCL3 expression: 0.502 FPKM
P+I 8 h, NC 0, NC_P+I 59.393
  CCL20 expression: 1.279 FPKM
P+I 8 h, NC 0, NC_P+I 229.054
  IL3 expression: 6.298 FPKM
P+I 8 h, NC 0, NC_P+I 247.287
  CCL4 expression: 4.062 FPKM
P+I 8 h, NC 0, NC_P+I 397.807
  IL2 expression: 12.964 FPKM
P+I 8 h, NC 0.006, NC_P+I 3.907
  C3 expression: 1.329 FPKM
P+I 8 h, NC 0.008, NC_P+I 13.196
  TNS3 expression: 1.418 FPKM
P+I 8 h, NC 0.019, NC_P+I 4.717
  PLS3 expression: 0.37 FPKM
P+I 8 h, NC 0.031, NC_P+I 4.533
  CREB5 expression: 1.966 FPKM
P+I 8 h, NC 0.034, NC_P+I 8.439
  IRF4 expression: 2.092 FPKM
P+I 8 h, NC 0.037, NC_P+I 26.755
  CXCL8 expression: 3.327 FPKM
P+I 8 h, NC 0.042, NC_P+I 5.663
  SLAMF1 expression: 0.275 FPKM
P+I 8 h, NC 0.045, NC_P+I 69.958
  TNFSF14 expression: 4.255 FPKM
P+I 8 h, NC 0.048, NC_P+I 23.616
  IL21R-AS1 expression: 3.991 FPKM
P+I 8 h, NC 0.056, NC_P+I 70.747
  XCL2 expression: 2.074 FPKM
P+I 8 h, NC 0.063, NC_P+I 3.697
  LIF expression: 0.231 FPKM
P+I 8 h, NC 0.069, NC_P+I 4.391
  SHC4 expression: 0.686 FPKM
P+I 8 h, NC 0.077, NC_P+I 29.102
  RGS16 expression: 5.595 FPKM
P+I 8 h, NC 0.1, NC_P+I 34.712
  IL21R expression: 5.255 FPKM
P+I 8 h, NC 0.104, NC_P+I 100.175
  CRTAM expression: 9.51 FPKM
P+I 8 h, NC 0.107, NC_P+I 4.985
  ZNF704 expression: 0.183 FPKM
P+I 8 h, NC 0.167, NC_P+I 7.941
  NTRK1 expression: 1.657 FPKM
P+I 8 h, NC 0.188, NC_P+I 17.377
  PHEX expression: 0.786 FPKM
P+I 8 h, NC 0.196, NC_P+I 5.08
  SORBS1 expression: 0.511 FPKM
P+I 8 h, NC 0.255, NC_P+I 4.095
  TIAM2 expression: 0.301 FPKM
P+I 8 h, NC 0.268, NC_P+I 3.029
  CRIM1 expression: 0.333 FPKM
P+I 8 h, NC 0.28, NC_P+I 85.882
  SERPINB2 expression: 14.103 FPKM
P+I 8 h, NC 0.321, NC_P+I 6.436
  CCND2 expression: 0.99 FPKM
P+I 8 h, NC 0.604, NC_P+I 14.322
  CXCR3 expression: 1.803 FPKM
P+I 8 h, NC 0.798, NC_P+I 56.893
  ISM1 expression: 3.737 FPKM
P+I 8 h, NC 0.84, NC_P+I 7.506
  C10orf54 expression: 0.487 FPKM
P+I 8 h, NC 0.848, NC_P+I 13.43
  CSF1 expression: 2.594 FPKM
P+I 8 h, NC 0.887, NC_P+I 9.069
  SLC35E4 expression: 1.517 FPKM
P+I 8 h, NC 0.975, NC_P+I 3.401
  ZNF827 expression: 1.372 FPKM
P+I 8 h, NC 1.101, NC_P+I 61.146
  CD70 expression: 7.606 FPKM
P+I 8 h, NC 1.154, NC_P+I 5.577
  PAM expression: 1.934 FPKM
P+I 8 h, NC 1.167, NC_P+I 8.247
  FOXO1 expression: 3.736 FPKM
P+I 8 h, NC 1.168, NC_P+I 14.813
  IRF8 expression: 1.914 FPKM
P+I 8 h, NC 1.25, NC_P+I 3.933
  SCHIP1 expression: 1.333 FPKM
P+I 8 h, NC 1.294, NC_P+I 7.508
  FOSL2 expression: 2.362 FPKM
P+I 8 h, NC 1.393, NC_P+I 7.107
  TNFSF9 expression: 2.651 FPKM
P+I 8 h, NC 1.402, NC_P+I 4.253
  IQCJ-SCHIP1 expression: 1.234 FPKM
P+I 8 h, NC 1.417, NC_P+I 9.105
  STAT5A expression: 3.055 FPKM
P+I 8 h, NC 1.428, NC_P+I 25.902
  TDRD9 expression: 1.888 FPKM
P+I 8 h, NC 1.468, NC_P+I 5.071
  LOC729603 expression: 3.329 FPKM
P+I 8 h, NC 1.497, NC_P+I 26.809
  PDGFA expression: 8.169 FPKM
P+I 8 h, NC 1.659, NC_P+I 9.467
  PHACTR2 expression: 2.791 FPKM
P+I 8 h, NC 1.702, NC_P+I 5.834
  CABP1 expression: 1.689 FPKM
P+I 8 h, NC 1.84, NC_P+I 36.298
  POU2AF1 expression: 2.971 FPKM
P+I 8 h, NC 2.079, NC_P+I 12.391
  SPRY1 expression: 4.901 FPKM
P+I 8 h, NC 2.283, NC_P+I 12.861
  GFOD1 expression: 6.312 FPKM
P+I 8 h, NC 2.356, NC_P+I 7.198
  DSTYK expression: 3.595 FPKM
P+I 8 h, NC 2.395, NC_P+I 6.813
  FMNL2 expression: 3.019 FPKM
P+I 8 h, NC 2.492, NC_P+I 11.633
  ADORA2A expression: 1.475 FPKM
P+I 8 h, NC 2.525, NC_P+I 27.462
  CD27 expression: 3.4 FPKM
P+I 8 h, NC 2.597, NC_P+I 31.683
  TNFRSF4 expression: 11.916 FPKM
P+I 8 h, NC 2.654, NC_P+I 20.219
  REL expression: 5.699 FPKM
P+I 8 h, NC 2.788, NC_P+I 26.566
  JAK2 expression: 8.45 FPKM
P+I 8 h, NC 2.89, NC_P+I 28.699
  LRRC8B expression: 4.298 FPKM
P+I 8 h, NC 3.008, NC_P+I 8.759
  NPDC1 expression: 5.64 FPKM
P+I 8 h, NC 3.088, NC_P+I 14.958
  CD27-AS1 expression: 4.613 FPKM
P+I 8 h, NC 3.315, NC_P+I 14.15
  CST7 expression: 3.175 FPKM
P+I 8 h, NC 3.351, NC_P+I 128.498
  TAGAP expression: 8.731 FPKM
P+I 8 h, NC 3.587, NC_P+I 39.451
  CD55 expression: 12.082 FPKM
P+I 8 h, NC 3.595, NC_P+I 10.378
  GTDC1 expression: 5.144 FPKM
P+I 8 h, NC 3.84, NC_P+I 14.865
  KCNK5 expression: 4.904 FPKM
P+I 8 h, NC 4.114, NC_P+I 11.118
  MYO1D expression: 5.995 FPKM
P+I 8 h, NC 4.125, NC_P+I 19.889
  RDH10 expression: 5.524 FPKM
P+I 8 h, NC 4.149, NC_P+I 17.216
  COL27A1 expression: 5.729 FPKM
P+I 8 h, NC 4.432, NC_P+I 14.807
  PLK3 expression: 7.036 FPKM
P+I 8 h, NC 4.511, NC_P+I 15.287
  NFATC1 expression: 3.916 FPKM
P+I 8 h, NC 4.678, NC_P+I 18.37
  ASAP1 expression: 9.052 FPKM
P+I 8 h, NC 5.451, NC_P+I 21.464
  GRK5 expression: 8.975 FPKM
P+I 8 h, NC 5.477, NC_P+I 33.545
  CCDC64 expression: 11.039 FPKM
P+I 8 h, NC 5.727, NC_P+I 30.239
  ATG14 expression: 11.252 FPKM
P+I 8 h, NC 5.755, NC_P+I 16.085
  PELI1 expression: 8.465 FPKM
P+I 8 h, NC 6.146, NC_P+I 31.337
  ARHGEF3 expression: 8.674 FPKM
P+I 8 h, NC 6.444, NC_P+I 49.019
  PKIA expression: 18.138 FPKM
P+I 8 h, NC 7.304, NC_P+I 33.466
  LTBP4 expression: 9.568 FPKM
P+I 8 h, NC 8.064, NC_P+I 31.61
  LAMP3 expression: 9.828 FPKM
P+I 8 h, NC 8.344, NC_P+I 24
  LAX1 expression: 7.578 FPKM
P+I 8 h, NC 8.928, NC_P+I 45.38
  PTPN22 expression: 5.119 FPKM
P+I 8 h, NC 9.566, NC_P+I 50.97
  VAMP1 expression: 14.752 FPKM
P+I 8 h, NC 10.319, NC_P+I 76.622
  NINJ1 expression: 54.452 FPKM
P+I 8 h, NC 10.828, NC_P+I 36.893
  KCNK1 expression: 13.139 FPKM
P+I 8 h, NC 10.97, NC_P+I 49.481
  CD97 expression: 21.496 FPKM
P+I 8 h, NC 11.735, NC_P+I 48.015
  FBXO34 expression: 18.386 FPKM
P+I 8 h, NC 11.844, NC_P+I 35.808
  TBC1D20 expression: 18.427 FPKM
P+I 8 h, NC 12.409, NC_P+I 50.527
  MIR6775 expression: 21.57 FPKM
P+I 8 h, NC 14.395, NC_P+I 39.056
  AGK expression: 14.306 FPKM
P+I 8 h, NC 14.671, NC_P+I 58.084
  FYN expression: 15.512 FPKM
P+I 8 h, NC 17.553, NC_P+I 62.894
  MIR6821 expression: 25.116 FPKM
P+I 8 h, NC 19.638, NC_P+I 54.615
  NDFIP1 expression: 24.432 FPKM
P+I 8 h, NC 20.739, NC_P+I 73.749
  TBC1D4 expression: 13.191 FPKM
P+I 8 h, NC 21.676, NC_P+I 144.057
  MAP2K3 expression: 43.237 FPKM
P+I 8 h, NC 22.163, NC_P+I 77.092
  PTPN6 expression: 20.806 FPKM
P+I 8 h, NC 25.643, NC_P+I 101.352
  FXYD5 expression: 42.856 FPKM
P+I 8 h, NC 31.375, NC_P+I 113.956
  BCL2L1 expression: 41.852 FPKM
P+I 8 h, NC 33.172, NC_P+I 129.395
  ATP6V1B2 expression: 60.661 FPKM
P+I 8 h, NC 37.434, NC_P+I 180.382
  PIM3 expression: 72.895 FPKM
P+I 8 h, NC 58.328, NC_P+I 188.301
  PPIF expression: 106.533 FPKM
